Source: a melting point compilation (Tetko et al.; mined from patent text by program, amines drawn as free bases though some values may be those of a salt)

Row | melting point [°C] | SMILES
1 | 196 to 198 | COC(=O)c1ccc(-c2n[nH]c(C)n2)cc1Cl
2 | 92 to 93 | O=C(NCCCCCCOC(=O)N1CCCCC1)OC1CCN(C(=O)Oc2ccc(Oc3ccccc3)cc2)CC1
3 | 70 to 71 | COCCNC(=O)c1cccc(-c2cccc3cc(Cc4ccc(F)c(OC)c4)sc23)c1
4 | 118 to 119 | O=C(NCCc1cccs1)C12CC3CC(CC(O)(C3)C1)C2
5 | 325 | O=C(Nc1nccs1)c1cnc2c(C(F)(F)F)cccc2c1O
6 | 225 to 226 | C[C@H](NC(=O)c1c[nH]c2ncc(-c3ccc(C(=O)NCc4ccccc4)s3)nc12)C(C)(C)C
7 | 265 to 267 | COc1cc2c(cc1OC)C(c1ccccc1)N1C(=O)CNC(=O)C1C2 (configuration not stated)
8 | 171 to 173 | O=c1cc(N2CCSCC2)oc2c1ccc1ccccc12
9 | 170 to 171 | CCC(=O)NC1=NN(c2ccccc2)CC1
10 | 95 to 98 | O=C1N(Cc2ccc(C(F)(F)F)o2)c2c(C(F)(F)F)cccc2C12COc1cc3c(cc12)OCO3 (configuration not stated)
11 | 134 to 135 | COc1cc(CC(=O)O)ccc1OCCCc1cn(-c2ccc(C(F)(F)F)cn2)nc1C(C)C
12 | 256 to 258 | CC(C)(C(=O)O)C1([N+](=O)[O-])OC2=CC=CC2=CC1c1ccccc1 (configuration not stated)
13 | 250 to 252 | CSc1nc(N)c(C#N)nc1C#N
14 | 182 to 183 | O=C(Nc1ccc2nc(CN3CCCCC3)ccc2c1)c1ccc(-c2ccc(F)cc2F)nc1
15 | 132 | Nc1cc(Cl)c(Br)c(Cl)c1
16 | 44 to 46 | O=C[C@H]1CC[C@H](SCc2ccc(Cl)cc2)CC1
17 | 132 to 133 | C=CCc1cc(C=CC(=O)O)ccc1O
18 | 75 to 76 | CCOC(=O)C1=Cc2ccc(OCc3ccccc3)cc2OCC1
19 | 224 to 226 | CC(=O)Nc1cccc(C(=O)CN2C=CSC2NC(C)=O)c1 (configuration not stated)
20 | 144 to 146 | Cc1cc(NCCCCCCBr)ccc1O
21 | 180 to 183 | O=C(O)Cc1c(Cl)nc(-c2ccc([N+](=O)[O-])cc2)n1Cc1ccccc1
22 | 142 | CCCC(=O)c1cc2nc(CO)n(C)c2cc1C
23 | 144 to 146 | Cc1cc(I)ccc1Nc1c(-c2nnco2)ccc(F)c1F
24 | 223 to 227 | CC1(COC2CC3C4CCC5=CC(=O)CCC5(C)C4(F)C(O)CC3(C)C2(O)C(=O)CO)CO1 (configuration not stated)
25 | 160 to 162 | COc1ccc(S(=O)(=O)C2(CCCC#Cc3ccc(Cl)cc3)CC(=O)NC2=O)cc1 (configuration not stated)

Row | melting point [°C] | SMILES
26 | 168 to 171 | CCOC(=O)c1ncn(-c2nncs2)c1S(N)(=O)=O
27 | 244 | CS(=O)(=O)n1c(Cc2ccc(C(=O)O)cc2)cc2cc(Cl)ccc21
28 | 215 to 216 | CC(C)Cn1c(CNC(=O)C2CC2)nc2c(N)nc3ccccc3c21
29 | 158 to 162 | O=C(O)C(CSc1ccccc1)CS(=O)(=O)c1ccc(-c2ccc(Cl)cc2)cc1 (configuration not stated)
30 | 246 to 249 | CC(C)=CCNc1ncnc2nc(N(C)C)[nH]c12
31 | 109 | CN1C(=O)CN(CCC(=O)O)C1=O
32 | 211 to 212 | O=C(Cc1ccc(F)cc1C(=O)O)Nc1cccc(/C=C/c2nc(C3CCC3)cs2)c1
33 | 183 to 185 | O=C(O)c1ccccc1C(=O)NCCc1cccnc1
34 | 128 to 130 | CC(C)(C)C(=NO)Nc1ccc(Cl)nn1
35 | 144 to 145 | COCCOc1ccc(/C=C/C(=O)O)c(Oc2ncc(Br)s2)c1
36 | 254 to 256 | NC(=O)c1ccc(N2CCN(Cc3cn4cc(Cl)ccc4n3)CC2)c(Cl)c1
37 | 69 to 72.2 | CSc1ncc2cc(Cc3ccccc3)oc2n1
38 | 224 to 225 | O=C(O)c1cc(OCc2ccccn2)c(C(=O)c2ccccc2)c([N+](=O)[O-])c1
39 | 196 to 198 | Cc1cc(OC/C=C/c2ccc(F)cc2)c(C)c(C)c1NC=O
40 | 181 to 183 | O=C(Cc1ccccc1)NC1C(=O)N2CC(C(=O)OCc3ccc([N+](=O)[O-])cc3)SC12 (configuration not stated)
41 | 75 to 77 | CC(C)c1cccc(CN2C[C@H](CO)OC2=O)c1
42 | 203 to 204 | Cn1ncc(-c2ccc3c(c2)c(C2CCN(CCN4CCNC4=O)CC2)cn3-c2ccc(F)cc2)n1
43 | 184 to 186 | O=C1CS(=O)c2ccccc2N1 (configuration not stated)
44 | 218 to 219 | Cc1cc2c(-c3ccccc3Cl)c(NC(=O)Nc3ccccc3)c(=O)n(C)c2cc1C
45 | 87 | Cc1ccc2cc(-c3cccs3)ccc2n1
46 | 128 to 129 | COc1ccc2c(c1)c(CC(=O)OCC(=O)NCCO[N+](=O)[O-])c(C)n2C(=O)c1ccc(Cl)cc1
47 | 108 to 112 | NCCOc1ccncc1
48 | 165 | Clc1cc2c(cc1Cn1c(Sc3ccccc3)nc(Br)c1Br)OCO2
49 | 123 to 130 | CCN1C(=O)C(C)(C)C(=O)N(C)c2cc(CN(CCn3ccc4oc(C)cc4c3=O)Cc3ccccc3-n3cccn3)ccc21
50 | 226 to 227 | CCOC(=O)c1cn(-c2nccs2)c2nc(Cl)cc(Cl)c2c1=O

Row | melting point [°C] | SMILES
51 | 221 to 226 | Cc1nc(-c2c(Cl)cccc2Cl)n[nH]1
52 | 184 | OC1CSC(Oc2cccnc2-c2ccco2)C(O)C1O (configuration not stated)
53 | 48.5 to 50.5 | N#CS/C=C\C(=O)OCc1ccccc1
54 | 61 to 63 | C=CC1(NC(=O)OC)CC(C)(C)CC(C)(C)C1
55 | 91 | CC(C)(C)c1cc(S[C@@H]2CCCC[C@H]2O)cc(C(C)(C)C)c1O (relative stereo)
56 | 222 to 224 | COc1c(N2CCC(N)C(C)(C)C2)c(F)cc2c(=O)c(C(=O)O)cn(C3CC3)c12 (configuration not stated)
57 | 52 to 53 | COc1c(F)cccc1-c1cnn2ccc(N3CCN(C(=O)OC(C)C)CC3)nc12
58 | > 250 | COc1cc(OC)c(-c2cn[nH]c2)cc1C=CC(=O)c1ccc(C(=O)O)cc1
59 | 155 to 157 | COc1ccccc1C(=O)NC1CCCn2c1nc(-c1ccncc1)cc2=O (racemic)
60 | 161 to 162 | CC(C)n1nc(C(=CN(C)C)C(=O)c2ccc(F)cc2)ccc1=O
61 | 161 to 162 | CC(C)c1cccc(C(C)C)c1NC(=S)NC(C)(C)C(C)(C)C
62 | 239 to 242 | Cc1c(O)c(=O)ccn1C(C)C
63 | 68 to 70 | CCCN(c1ccncc1Cl)n1cc(C)c2ccccc21
64 | 190 | CC(C)(C)OC(=O)[C@H]1CC[C@@H](c2ccccc2)N1C(=O)CNC(=O)Nc1ccc(O)c(C(=O)O)c1 (racemic)
65 | 238 to 240 | CN(C)C(=O)Cc1ccc2c(c1)sc1nc(=O)cc(-c3ccccc3)n12
66 | 151 to 152 | CC(CN1CCn2c(c(-c3ccccc3)c3cc(Cl)ccc32)C1=O)N(C)C (configuration not stated)
67 | 146 to 148 | NC(=O)C1CCCc2c(C(=O)c3ccccc3)cccc21 (configuration not stated)
68 | 198 to 200 | NC(=O)N1C(=O)C(=C(OC(=O)C=CC(=O)O)c2cccs2)c2cc(Cl)ccc21
69 | 103 to 104 | O=C1C(=CO)CSc2ccc(Cl)cc21
70 | 158 to 159 | O=C1CC(O)CN1S(=O)(=O)c1ccc(N2CCCCC2)cc1 (configuration not stated)
71 | 60 to 62 | Fc1ccc(C2Cc3cnc(NCCCN4CCCCC4)nc3-c3ccccc32)cc1 (configuration not stated)
72 | 265 | O=C1c2ccc(C(F)(F)F)cc2C(=O)N1c1ccc2ccc(Cl)nc2n1
73 | 145 to 147 | C/C(CCN1CCCC1c1ccc(Cl)c(Cl)c1)=N\O (configuration not stated)
74 | 232 | CS(=O)(=O)NC(=O)C(Cc1ccc(OCc2ccccc2)cc1)NC(=O)c1cn2cc(-c3ccc(Cl)cc3)ccc2n1 (configuration not stated)
75 | 157 | CN1C(c2nnc(C3CCCCC3)o2)=C(OC(=O)c2ccccc2)c2ccccc2S1(=O)=O

Row | melting point [°C] | SMILES
76 | 95 to 96 | CCOC(=O)CC[C@H](NC(=O)c1ccc([N+](=O)[O-])cc1Cl)C(=O)OCC
77 | 132 to 134 | CC(C)c1nc2ccccc2c(-c2ccc(F)cc2)c1CO
78 | 198 to 199 | CC(C)c1cc2cc(O)ccc2c(Oc2ccc(/C=C/C(=O)O)cc2)c1-c1ccccc1
79 | 198 | O=C(N1CCOCC1)N1Cc2c(-c3noc(C4CC4)n3)ncn2-c2ccccc21
80 | 77 to 79 | CCN(CC)C(=O)n1cnc(S(=O)(=O)CC2CCCC2)n1
81 | 172 to 173 | CCCC(CCC)NC(=O)Nc1ccc(OC)cc1OC
82 | 153 to 154 | CC(=O)N(O)C(C)c1cc(C(C)(C)C)c(O)c(C(C)(C)C)c1 (configuration not stated)
83 | 182 to 188 | O=C(N1CCc2cc(O)c(O)cc2C(c2ccccc2)C1)C(F)(F)F (configuration not stated)
84 | 268 | COc1ccc(-c2nc3cnncc3[nH]2)c(OC)c1
85 | 104 to 106 | O=C1CCC(c2c[nH]c3cccc(F)c23)CC1
86 | 89 to 90 | CCC(C#N)Oc1nc2cc(OC)cc(OC)c2cc1-c1ccc(OC)cc1 (configuration not stated)
87 | 87 to 88 | COC(=O)/C(=C/c1cccc(OC)c1)c1cc(OC)c(OC)c(OC)c1
88 | 158 to 160 | CSc1cc2c(cc1C(F)(F)F)N(C(=O)Nc1ccc(C(=O)Nc3ccncc3)cc1)CC2
89 | 93 to 95 | CCCCc1oc2cc(Br)ccc2c1CC1(c2ccc(OC)cc2)OCN=C1Br (configuration not stated)
90 | 140 to 145 | O=C1COCCN1c1ccc(N2C[C@@H](CN(Cc3ccccc3)Cc3ccccc3)OC2=O)cc1
91 | 179 to 181 | COc1cc(OC)nc(-c2c(C)[nH]c3ccc(Cl)cc23)n1
92 | 195 to 196 | CCOC(=O)c1nc2scc(COCc3ccc(F)cc3)c2c(=O)[nH]1
93 | 214 to 216 | CC12CCC(C(=O)O)=CC1=CCC1C2CCC2(C)C(C(=O)NC3C4CC5CC(C4)CC3C5)CCC12 (configuration not stated)
94 | 131 to 134 | O=C(C=Cc1ccccn1)c1ccc(OCc2ccccc2)cc1
95 | 206 to 209 | CC(C)NC(=O)Nc1ccnnc1
96 | 73 to 76 | CCCCC(=O)NCCC(=O)O
97 | 183 to 187 | CN1C(=O)CC[C@]2(C)c3ccc(-c4ccc5ncsc5c4)cc3CC[C@@H]12
98 | 204 | N#Cc1ccc(N2CC(C(=O)O)OC2=O)cc1 (configuration not stated)

Row | SMILES | melting point [°C]
99 | CC(C)N1NN=C(c2cn(C)c3ccccc3c2=O)N1 | 134 to 137
100 | CC1CC2(C)C(O)CCC2C2C(C)CC3=CC(=O)CCC3C12 (configuration not stated) | 155 to 157
101 | CCc1c(C(=O)C(C)C)c2ccc(-c3nnn[nH]3)cc2n1Cc1ccccc1Cl | 160 to 163
102 | COC1=CC23CCN(C)C(Cc4ccc(OC)c(Oc5ccccc5)c42)C3=CC1C (configuration not stated) | 177 to 178
